How the values were obtained:
Experiment in all cases: biochemical
Details in all cases: read-out: %Ctrl @ 1000nM
HCK = HCK (Homo sapiens, UniProt P08631)
AURKC = AURKC (Homo sapiens, UniProt Q9UQB9)
DYRK1A = DYRK1A (Homo sapiens, UniProt Q13627)
AURKB = AURKB (Homo sapiens, UniProt Q96GD4)
MARK3 = MARK3 (Homo sapiens, UniProt P27448)
MLCK = biological target: T1, MLCK (Homo sapiens, UniProt Q32MK0)
T1 construct: gene MYLK3

IGF1R = IGF1R (Homo sapiens, UniProt P08069)
EPHB1 = EPHB1 (Homo sapiens, UniProt P54762)
RET(V804M) = RET(V804M) (Homo sapiens, UniProt P07949, V804M)
MLK3 = biological target: T2, MLK3 (Homo sapiens, UniProt Q16584)
T2 construct: gene MAP3K11

EGFR = EGFR (Homo sapiens, UniProt P00533)
NEK1 = NEK1 (Homo sapiens, UniProt Q96PY6)
SIK = biological target: T3, SIK (Homo sapiens, UniProt P57059)
T3 construct: gene SIK1

FLT3(D835Y) = FLT3(D835Y) (Homo sapiens, UniProt P36888, D835Y)
CSF1R-autoinhibited = CSF1R-autoinhibited (Homo sapiens, UniProt P07333)
DRAK2 = biological target: T4, DRAK2 (Homo sapiens, UniProt O94768)
T4 construct: gene STK17B

ACVRL1 = ACVRL1 (Homo sapiens, UniProt P37023)
MAP3K3 = MAP3K3 (Homo sapiens, UniProt Q99759)
GRK4 = GRK4 (Homo sapiens, UniProt P32298)
CASK = CASK (Homo sapiens, UniProt O14936)
[1] = biological target: T5, RSK1(Kin.Dom.1-N-terminal) (Homo sapiens, UniProt Q15418)
T5 construct: gene RPS6KA1

[2] = biological target: T6, RSK4(Kin.Dom.2-C-terminal) (Homo sapiens, UniProt Q9UK32)
T6 construct: gene RPS6KA6

LATS2 = LATS2 (Homo sapiens, UniProt Q9NRM7)
KIT(V559D,V654A) = KIT(V559D,V654A) (Homo sapiens, UniProt P10721, V559D/V654A)
CDK9 = CDK9 (Homo sapiens, UniProt P50750)
NIM1 = biological target: T7, NIM1 (Homo sapiens, UniProt Q8IY84)
T7 construct: gene NIM1K

TEC = TEC (Homo sapiens, UniProt P42680)
[3] = biological target: ABL1(Y253F)-phosphorylated (Homo sapiens, UniProt P00519, Y253F)
ROCK1 = ROCK1 (Homo sapiens, UniProt Q13464)
[4] = biological target: ABL1(H396P)-phosphorylated (Homo sapiens, UniProt P00519, H396P)
ITK = ITK (Homo sapiens, UniProt Q08881)
PIK3CB = PIK3CB (Homo sapiens, UniProt P42338)
NDR2 = biological target: T8, NDR2 (Homo sapiens, UniProt Q9Y2H1)
T8 construct: gene STK38L

CDK3 = CDK3 (Homo sapiens, UniProt Q00526)
CDK4-cyclinD3 = CDK4-cyclinD3 (Homo sapiens, UniProt P11802)

T4 sequence (O94768 whole entry): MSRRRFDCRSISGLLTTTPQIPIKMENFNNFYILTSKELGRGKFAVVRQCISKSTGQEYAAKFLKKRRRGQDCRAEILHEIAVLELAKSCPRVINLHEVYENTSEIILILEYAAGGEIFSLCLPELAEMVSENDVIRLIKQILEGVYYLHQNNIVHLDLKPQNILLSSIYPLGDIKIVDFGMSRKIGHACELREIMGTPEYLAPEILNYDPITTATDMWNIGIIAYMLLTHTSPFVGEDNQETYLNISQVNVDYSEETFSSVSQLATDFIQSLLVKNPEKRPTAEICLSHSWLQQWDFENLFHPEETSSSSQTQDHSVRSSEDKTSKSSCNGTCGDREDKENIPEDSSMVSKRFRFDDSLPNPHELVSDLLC
ACVRL1, sequence (P37023 whole entry): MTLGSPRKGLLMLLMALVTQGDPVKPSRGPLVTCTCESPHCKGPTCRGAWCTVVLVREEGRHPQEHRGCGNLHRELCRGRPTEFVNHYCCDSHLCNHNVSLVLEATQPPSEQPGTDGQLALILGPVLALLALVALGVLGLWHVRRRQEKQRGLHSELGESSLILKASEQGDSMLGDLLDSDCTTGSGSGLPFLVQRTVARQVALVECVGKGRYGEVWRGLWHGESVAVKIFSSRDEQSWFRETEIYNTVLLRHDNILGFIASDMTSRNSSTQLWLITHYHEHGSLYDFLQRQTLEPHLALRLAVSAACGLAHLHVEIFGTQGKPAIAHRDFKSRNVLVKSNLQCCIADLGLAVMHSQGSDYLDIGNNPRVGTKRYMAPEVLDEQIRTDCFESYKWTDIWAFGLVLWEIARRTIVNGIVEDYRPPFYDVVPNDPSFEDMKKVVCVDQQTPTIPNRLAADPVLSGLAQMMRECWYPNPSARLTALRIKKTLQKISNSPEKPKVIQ
CSF1R-autoinhibited, sequence (P07333 whole entry): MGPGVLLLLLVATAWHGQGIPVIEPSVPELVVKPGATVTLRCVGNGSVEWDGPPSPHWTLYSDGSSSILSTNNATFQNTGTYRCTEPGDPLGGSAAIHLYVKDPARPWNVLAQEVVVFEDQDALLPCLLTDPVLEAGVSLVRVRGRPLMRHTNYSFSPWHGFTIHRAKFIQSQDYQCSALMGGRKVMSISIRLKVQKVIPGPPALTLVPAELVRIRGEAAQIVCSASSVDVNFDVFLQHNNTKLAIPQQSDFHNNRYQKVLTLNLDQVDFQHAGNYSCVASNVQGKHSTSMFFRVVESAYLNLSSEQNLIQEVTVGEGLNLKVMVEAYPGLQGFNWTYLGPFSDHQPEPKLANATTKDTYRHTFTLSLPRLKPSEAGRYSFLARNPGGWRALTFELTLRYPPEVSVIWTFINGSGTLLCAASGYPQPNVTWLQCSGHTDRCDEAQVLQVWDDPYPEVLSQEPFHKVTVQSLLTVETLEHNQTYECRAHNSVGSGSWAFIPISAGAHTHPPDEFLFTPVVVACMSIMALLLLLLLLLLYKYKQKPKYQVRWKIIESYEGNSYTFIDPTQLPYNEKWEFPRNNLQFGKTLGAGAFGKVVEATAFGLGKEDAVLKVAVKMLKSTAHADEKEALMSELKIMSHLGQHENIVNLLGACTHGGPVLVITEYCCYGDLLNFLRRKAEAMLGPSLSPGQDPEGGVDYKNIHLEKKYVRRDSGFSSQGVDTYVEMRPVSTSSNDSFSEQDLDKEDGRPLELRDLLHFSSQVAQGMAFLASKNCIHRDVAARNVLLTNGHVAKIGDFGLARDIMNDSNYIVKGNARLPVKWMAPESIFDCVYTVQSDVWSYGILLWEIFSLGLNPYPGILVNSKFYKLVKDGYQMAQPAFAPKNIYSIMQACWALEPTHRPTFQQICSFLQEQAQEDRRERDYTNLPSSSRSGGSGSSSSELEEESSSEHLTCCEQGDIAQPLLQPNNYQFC
T3 sequence (P57059 whole entry): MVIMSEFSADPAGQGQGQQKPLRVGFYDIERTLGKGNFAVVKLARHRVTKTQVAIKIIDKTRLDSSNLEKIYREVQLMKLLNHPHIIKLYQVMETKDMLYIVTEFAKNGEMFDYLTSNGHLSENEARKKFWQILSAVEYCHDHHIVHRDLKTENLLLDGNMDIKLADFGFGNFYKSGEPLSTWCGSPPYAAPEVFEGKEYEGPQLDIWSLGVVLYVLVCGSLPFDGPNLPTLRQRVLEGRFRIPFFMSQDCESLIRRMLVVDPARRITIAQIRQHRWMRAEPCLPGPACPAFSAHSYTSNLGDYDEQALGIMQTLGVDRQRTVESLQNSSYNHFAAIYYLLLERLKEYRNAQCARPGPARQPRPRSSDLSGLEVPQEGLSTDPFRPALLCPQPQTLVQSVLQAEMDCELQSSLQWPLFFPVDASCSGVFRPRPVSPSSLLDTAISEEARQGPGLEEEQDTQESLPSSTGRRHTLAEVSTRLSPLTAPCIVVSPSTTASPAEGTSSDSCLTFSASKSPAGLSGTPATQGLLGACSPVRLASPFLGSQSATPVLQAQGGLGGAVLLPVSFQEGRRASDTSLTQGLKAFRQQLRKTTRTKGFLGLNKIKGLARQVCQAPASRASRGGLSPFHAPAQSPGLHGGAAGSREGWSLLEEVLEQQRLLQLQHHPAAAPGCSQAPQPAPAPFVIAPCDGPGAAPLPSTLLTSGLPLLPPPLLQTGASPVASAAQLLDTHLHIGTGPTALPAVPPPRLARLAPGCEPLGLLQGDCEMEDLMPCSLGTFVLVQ
PIK3CB, sequence (P42338 whole entry): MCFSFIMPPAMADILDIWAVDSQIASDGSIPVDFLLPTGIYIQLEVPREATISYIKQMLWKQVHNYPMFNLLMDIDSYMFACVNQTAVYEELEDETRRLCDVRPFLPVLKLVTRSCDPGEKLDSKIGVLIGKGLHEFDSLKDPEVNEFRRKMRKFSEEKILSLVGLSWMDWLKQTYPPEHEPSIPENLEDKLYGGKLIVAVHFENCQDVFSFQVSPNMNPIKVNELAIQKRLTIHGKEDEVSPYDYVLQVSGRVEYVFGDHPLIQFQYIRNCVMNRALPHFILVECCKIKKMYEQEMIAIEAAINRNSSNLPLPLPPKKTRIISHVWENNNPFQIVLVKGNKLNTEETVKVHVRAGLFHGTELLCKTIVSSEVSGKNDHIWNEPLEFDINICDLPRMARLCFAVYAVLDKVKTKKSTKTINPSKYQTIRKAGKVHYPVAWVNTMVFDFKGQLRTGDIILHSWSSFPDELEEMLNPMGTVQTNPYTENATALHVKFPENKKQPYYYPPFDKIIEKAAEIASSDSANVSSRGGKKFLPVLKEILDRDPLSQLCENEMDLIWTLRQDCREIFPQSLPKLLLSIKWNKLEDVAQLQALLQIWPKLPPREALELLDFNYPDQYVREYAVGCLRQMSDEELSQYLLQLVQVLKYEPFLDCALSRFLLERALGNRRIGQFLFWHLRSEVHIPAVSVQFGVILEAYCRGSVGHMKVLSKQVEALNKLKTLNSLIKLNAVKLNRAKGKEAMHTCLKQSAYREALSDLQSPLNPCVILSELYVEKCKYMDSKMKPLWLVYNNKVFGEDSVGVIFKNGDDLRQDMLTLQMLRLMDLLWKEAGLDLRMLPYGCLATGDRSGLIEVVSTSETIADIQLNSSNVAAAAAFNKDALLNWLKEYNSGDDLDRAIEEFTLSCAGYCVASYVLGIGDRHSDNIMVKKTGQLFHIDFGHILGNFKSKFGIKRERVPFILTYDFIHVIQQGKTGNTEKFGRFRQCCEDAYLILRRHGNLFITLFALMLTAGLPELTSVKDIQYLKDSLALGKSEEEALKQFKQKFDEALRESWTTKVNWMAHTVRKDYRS
ITK, sequence (Q08881 whole entry): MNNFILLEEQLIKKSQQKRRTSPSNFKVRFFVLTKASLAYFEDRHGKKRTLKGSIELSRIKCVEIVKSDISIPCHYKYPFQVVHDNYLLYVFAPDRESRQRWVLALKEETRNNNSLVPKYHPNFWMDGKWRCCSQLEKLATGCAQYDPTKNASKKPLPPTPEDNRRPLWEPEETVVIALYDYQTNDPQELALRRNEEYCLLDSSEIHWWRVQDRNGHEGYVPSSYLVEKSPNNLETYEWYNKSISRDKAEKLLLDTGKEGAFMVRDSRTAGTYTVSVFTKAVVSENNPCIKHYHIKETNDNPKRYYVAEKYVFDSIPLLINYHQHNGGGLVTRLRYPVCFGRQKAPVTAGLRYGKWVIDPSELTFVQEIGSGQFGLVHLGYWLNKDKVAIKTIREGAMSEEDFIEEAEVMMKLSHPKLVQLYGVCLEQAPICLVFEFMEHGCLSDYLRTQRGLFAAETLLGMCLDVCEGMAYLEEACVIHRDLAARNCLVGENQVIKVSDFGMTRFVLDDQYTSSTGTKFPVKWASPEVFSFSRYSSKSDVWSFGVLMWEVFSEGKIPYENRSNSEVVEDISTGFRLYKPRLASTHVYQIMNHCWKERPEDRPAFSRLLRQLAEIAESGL
GRK4, sequence (P32298 whole entry): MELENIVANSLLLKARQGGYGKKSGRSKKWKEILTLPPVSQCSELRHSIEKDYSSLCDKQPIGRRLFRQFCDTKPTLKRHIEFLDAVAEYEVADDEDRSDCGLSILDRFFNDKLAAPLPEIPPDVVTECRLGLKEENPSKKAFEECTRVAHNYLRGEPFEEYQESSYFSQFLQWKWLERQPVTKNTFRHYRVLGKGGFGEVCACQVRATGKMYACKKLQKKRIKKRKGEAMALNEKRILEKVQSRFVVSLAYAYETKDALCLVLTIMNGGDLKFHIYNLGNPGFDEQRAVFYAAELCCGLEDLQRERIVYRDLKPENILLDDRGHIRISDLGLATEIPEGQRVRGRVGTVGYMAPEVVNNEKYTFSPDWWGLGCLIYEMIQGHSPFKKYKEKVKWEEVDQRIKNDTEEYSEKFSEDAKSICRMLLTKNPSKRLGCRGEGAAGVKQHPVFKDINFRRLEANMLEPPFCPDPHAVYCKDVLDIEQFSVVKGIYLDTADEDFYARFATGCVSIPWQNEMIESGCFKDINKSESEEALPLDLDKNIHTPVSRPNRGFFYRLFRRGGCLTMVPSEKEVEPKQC

In the case of `Cc1cn(-c2cc(NC(=O)c3ccc4c(c3)CN(c3cncnc3)C[C@@H]4C)cc(C(F)(F)F)c2)cn1` [Compound 6j], the remaining activity at 1 µM (HCK) is reported as 86%, the remaining activity at 1 µM (AURKC) is reported as 100% and the remaining activity at 1 µM (DYRK1A) is reported as 100%. For the same molecule, the remaining activity at 1 µM (AURKB) was 98%, the remaining activity at 1 µM (MARK3) was 94% and the remaining activity at 1 µM (MLCK) was 92%. It also gave a remaining activity at 1 µM (IGF1R) of 100%, a remaining activity at 1 µM (EPHB1) of 72% and a remaining activity at 1 µM (RET(V804M)) of 100%. The remaining activity at 1 µM (MLK3) was 81%, the remaining activity at 1 µM (EGFR) was 94% and the remaining activity at 1 µM (NEK1) was 100%. It also gave a remaining activity at 1 µM (SIK) of 84%, a remaining activity at 1 µM (FLT3(D835Y)) of 40% and a remaining activity at 1 µM (CSF1R-autoinhibited) of 93%. It also gave a remaining activity at 1 µM (DRAK2) of 97%, a remaining activity at 1 µM (ACVRL1) of 76% and a remaining activity at 1 µM (MAP3K3) of 85%. It also gave a remaining activity at 1 µM (GRK4) of 100%, a remaining activity at 1 µM (CASK) of 100% and a remaining activity at 1 µM [1] of 96%. The remaining activity at 1 µM [2] was 74%, the remaining activity at 1 µM (LATS2) was 100% and the remaining activity at 1 µM (KIT(V559D,V654A)) was 86%. For the same molecule, the remaining activity at 1 µM (CDK9) was 92%, the remaining activity at 1 µM (NIM1) was 100% and the remaining activity at 1 µM (TEC) was 96%. For the same molecule, the remaining activity at 1 µM [3] was 98%, the remaining activity at 1 µM (ROCK1) was 100% and the remaining activity at 1 µM [4] was 100%. It also gave a remaining activity at 1 µM (ITK) of 97%, a remaining activity at 1 µM (PIK3CB) of 100% and a remaining activity at 1 µM (NDR2) of 100%. The remaining activity at 1 µM (CDK3) was 97% and the remaining activity at 1 µM (CDK4-cyclinD3) was 100%.

— publication PMC5053573, “Structure-Based Design of Tetrahydroisoquinoline-7-carboxamides as Selective Discoidin Domain Receptor 1 (DDR1) Inhibitors” (Journal of Medicinal Chemistry, 2016)
